Patent publication US20090054326A1 (NASTECH PHARMACEUTICAL COMPANY INC., priority 2005, published 2009)

Tests used:
aminopeptidases = conditions: cited from earlier work
[1] = test system: normal, human-derived tracheal/bronchial epithelial cells (EpiAirway Tissue Model); assay: Transepithelial electrical resistance (TER) in EpiAirway tissue model; format: cell-based; conditions: after one hour exposure at 37° C.; Examples 1-4
Procedure: Samples were evaluated in an in vitro tissue model. […] Inserts were feed for each day of recovery.
TER measurements were accomplished using the Endohm-12 Tissue Resistance Measurement Chamber connected to the EVOM Epithelial Voltohmmeter (World Precision Instruments, Sarasota, Fla.) with the electrode leads. The electrodes and a tissue culture blank insert were equilibrated for at least 20 minutes in MatTek medium with the power off prior to check calibration. The background resistance was measured with 1.5 ml Media in the Endohm tissue chamber and 300 μl Media in the blank insert. The top electrode was adjusted so that it was close to, but not making contact with, the top surface of the insert membrane. Background resistance of the blank insert was about 5-20 ohms. For each TER determination, 300 μl of MatTek medium was added to the insert followed by placement in the Endom chamber. Resistance was expressed as (resistance measured−blank)×0.6 cm^2.

| Compound | more effective in enzyme inhibition than bestatin (aminopeptidases; relative to bestatin) | more effective in enzyme inhibition than puromycin (aminopeptidases; relative to puromycin) | change in TER [1] |
| --- | --- | --- | --- |
| CC(C)CC(N)B(O)O (stereo not drawn) [boro-leucine] | more than 100 times | more than 1000 times | – |
| Triton X | – | – | essentially a complete reduction in TER |
